{"source": "patent US8552064B2", "about": "“Suramin and derivatives thereof as topical microbicide and contraceptive” (Eastern Virginia Medical School, priority 2005, dated 2013)", "key": {"[1]": {"system": "rabbit sperm", "assay": "Rabbit contraceptive efficacy, intravaginal application", "type": "in vivo", "method": "Semen was collected from New Zealand White (NZW) male rabbits with the aid of an artifical vagina, pooled and adjusted with a modified Tyrode's albumin lactate pyruvate (TALP) medium to 50 million motile sperm per milliliter. Ovulation was induced in females by injection of 200 IU of human chorionic gonadotropin (hCG) intravenously. Under the ex-vivo (in-vitro) mixing protocol, sperm were incubated with indicated suramin test compounds in a tube for 15 minutes at 37° C. prior to insemination (0.5 mL) as described in Anderson R. A., et al. J. Androl., 21: 862-875 (2000). […] Sperm-compound contact, in this case, took place in vivo, inside the vagina. Insemination and administration of the compound was performed with a flexible, 12 cm long polyurethane catheter. The main endpoints for both protocols were the number of implantation sites counted 11 days after insemination and pregnancy rate. Such sites were counted by visual inspection of the tubes."}, "[2]": {"system": "murine cytomegalovirus (MCMV) binding to NIH3T3 fibroblasts", "assay": "Cytomegalovirus binding assay", "type": "cell-based", "method": "In a cytomegalovirus binding assay, tritiated murine cytomegalovirus (MCMV) was incubated with NIH3T3 fibroblasts in a 24-well plate fixed (0.4% paraformaldehyde) for 2 hours at 37° C. (rocking) in the presence of media alone or media containing 1-1000 μg/mL suramin. Cells were then washed extensively and lysed with 1% SDS and triton X-100. Lysates were quantified for radioactivity (cpm) in a scintillation counter."}, "[3]": {"system": "Lactobacillus gasseri", "assay": "Lactobacilli growth", "type": "cell-based"}, "[4]": {"system": "SIV", "assay": "SIV reverse transcriptase assay", "type": "cell-based", "method": "Reverse transcriptase activity, a measurement of virus replication, was measured in cell-free supernatants. Tritiated thymidine triphosphate (NEN) (TFP) was resuspended in distilled H2O at 5 Ci/mL. Poly rA and oligo dT were prepared as a stock solution which was kept at −20° C. The RT reaction buffer was prepared fresh on a daily basis and consisted of 125 μL 1.0 M EGTA, 125 μL dH2O, 110 μL 10% […], 50 μL 1.0 M Tris (pH 7.4), 50 μL 1.0 M DTT, and 40 μL 1.0 M MgCl2. These three solutions were mixed together in a ratio of 2 parts TTP, 1 part poly rA:oligo dT, and 1 part reaction buffer. Ten microliters (10 μL) of this reaction mixture was placed in a round bottom microtiter plate and 15 μL of virus containing supernatant added and mixed. The plate was incubated at 37° C. for 60 minutes. Following reaction, the reaction volume was spotted onto pieces of DE81 paper, washed 5 times for 5 minutes each in a 5% sodium phosphate buffer, 2 times for 1 minute each in distilled water, 2 times for 1 minute each in 70% ethanol, and then dried. Opti-Fluor 0 was added to each sample and incorporated radioactivity quantitated utilizing a Wallac 1450 Microbetaplus liquid scintillation counter. The results of this assay are provided herein."}, "[5]": {"system": "HIV-1-infected SupT1 cells (strain IIIB)", "assay": "Cell-to-cell transmission (CTC) assay", "type": "cell-based", "settings": "for IC50: Human immunodeficiency virus 1, IIIB, SUP-T1", "method": "HIV-1-infected SupT1 cells (strain IIIB), killed by prior exposure to mitomycin C (200 μg/mL) for 1 hour at 37° C., were incubated with each agent and P4-R5 (MAGI) cells for 2 hours at 37° C. Following the incubation period, cells were washed and provided with new media. Successful transmission and subsequent replication events were quantitated using Galacto-Star assay 48 hr post-infection. Infected cells were expressed as a percent of cells infected after mock exposure. In each assay, triplicate wells were tested for each concentration. The results of this assay are provided herein."}, "[6]": {"biological_target": "sheep testicular hyaluronidase (Ovis aries, UniProt A0ACI6NV18)", "sequence (A0ACI6NV18 entry or part of it)": "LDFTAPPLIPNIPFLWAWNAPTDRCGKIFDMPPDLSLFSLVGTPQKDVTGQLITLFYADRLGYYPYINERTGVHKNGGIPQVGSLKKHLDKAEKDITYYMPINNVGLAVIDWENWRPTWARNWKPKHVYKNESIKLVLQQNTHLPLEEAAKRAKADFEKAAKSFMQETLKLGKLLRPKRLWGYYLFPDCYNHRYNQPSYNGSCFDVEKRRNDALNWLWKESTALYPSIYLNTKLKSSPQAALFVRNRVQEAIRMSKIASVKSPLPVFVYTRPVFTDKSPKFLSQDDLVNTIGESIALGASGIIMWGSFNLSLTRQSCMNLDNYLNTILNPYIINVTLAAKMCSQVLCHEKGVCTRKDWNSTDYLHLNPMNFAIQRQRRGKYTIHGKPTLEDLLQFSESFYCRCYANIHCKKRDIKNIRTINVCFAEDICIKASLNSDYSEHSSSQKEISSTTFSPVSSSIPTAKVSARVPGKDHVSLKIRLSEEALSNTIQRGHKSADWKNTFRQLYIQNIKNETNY", "assay": "Hyaluronic acid hydrolysis assay", "type": "biochemical", "text": "A hyaluronic acid hydrolysis assay was used to assess the hyaluronidase inhibition properties of suramin sodium. Hyaluronidase is a critical sperm enzyme involved in cumulus penetration. Inhibition of this enzyme renders sperm incapable of transversing the egg vestments, thus impeding sperm-oocyte interaction and, ultimately, fertilization.\nHyaluronidase activity was quantitatively determined by measuring the extent of hyaluronic acid hydrolysis (i.e., the concentration of N-acetylglucosamine-reactive material formed from enzyme activity). Reaction mixtures containing the following were prepared: test compound (variable concentrations of suramin sodium); 0.1 M sodium acetate; 0.15 M sodium chloride; pH adjusted to 5.5; 7.2 units sheep testicular hyaluronidase (Sigma, Type III; H-2251) contained in an acetate buffer; 0.3 mg/ml hyaluronic acid (Sigma, from bovine vitreous humor; H-7630). The enzyme was preincubated with the test agent (1 mg/ml for screening purposes) for 10 minutes before starting the reaction by the addition of hyaluronic acid. The enzyme reaction was determined using the method of Aronson and Davidson (J. Biol. Chem. 241 437-40, 1967). […] The reaction product is determined calorimetrically with […] (Reissig et al., J. Biol. Chem. 217 959-966, […]) by measuring the absorbance at 545 nm."}, "[7]": {"system": "interleukin release by vaginal cells", "type": "cell-based, human", "method": "Interleukin levels were assessed in the supernatant collected after 6 hours of compound-cells incubation using commercial ELISA kits (R&D Diagnostics, Minneapolis, Minn.) according to manufacturer's instructions (also see Fichorova R. N. et al., J. Infect. Dis. 184(4): 418-28, 2001)."}, "[8]": {"system": "Neisseria gonorrhoeae", "assay": "Gonococcal growth inhibition (multiplication assay)", "type": "cell-based", "method": "Gonococcal growth inhibition assays were performed by the method of Anderson R. A., et al., J. Androl., 21: 862-875; 2000. Briefly, Neisseria gonorrhea from local uncomplicated cases of gonorrhea were isolated (verified by Gram stain, oxidase reactivity and sugar fermentation). The titer of log-phase cultures were adjusted by dilution in GC broth to 0.5 McFarland standard (approximately 10^8 colony forming units per ml). This was diluted 1:10 with broth that contained no additions (control), and each of serial 1:10 dilutions of test agent, ranging from 1 mg/ml to 1.0 μg/ml. The cultures were incubated at 37° C. for four hours. Four serial 1:10 dilutions were made in GC broth, and a portion of each dilution was inoculated onto GC agar plates. The plates were incubated overnight, and resultant gonococcal colonies were counted under bright-field microscopy. Data for each concentration of suramin were expressed as the number of colony-forming units (CFU) per ml of the original log-phase bacterial suspension."}}, "note": "Where two headings read alike, the source gives them in different places.", "data": [{"compound": "Cc1ccc(C(=O)Nc2ccc(S(=O)(=O)O)c3cc(S(=O)(=O)O)cc(S(=O)(=O)O)c23)cc1NC(=O)c1cccc(NC(=O)Nc2cccc(C(=O)Nc3cc(C(=O)Nc4ccc(S(=O)(=O)O)c5cc(S(=O)(=O)O)cc(S(=O)(=O)O)c45)ccc3C)c2)c1", "note": "[Suramin, 8,8′-(carbonylbis(imino-3,1-phenylenecarbonylimino(4-methyl-3,1-phenylene)carbonylimino))bis-1,3,5-naphthalene trisulfonic acid]", "values": [{"measurement": "inhibition (contraceptive), Vaginal Application", "setting": "[1]; 1.25% in Replens", "result": 100, "unit": "% inhibition"}, {"measurement": "inhibition, Vaginal Application", "setting": "[1]; 2%", "result": 44, "unit": "% at 2%"}, {"measurement": "inhibition, Vaginal Application Combo", "setting": "[1]; 2% suramin + 2% sorbitan mono laurate or 0.1% N-9", "result": 100, "unit": "% inhibition at"}, {"measurement": "reduction in PR", "setting": "[1]; 5%, intravaginal administration", "result": 75, "unit": "% inhibition"}, {"measurement": "Potency, Contraception, rabbit inseminated sperm (Vaginal Application)", "setting": "[1]; rabbit, in vivo", "result": "Moderate"}, {"measurement": "Potency, Vaginal Application Combo", "setting": "[1]; rabbit, in vivo", "result": "High"}, {"measurement": "Potency, Vaginal Application, Replens", "setting": "[1]; rabbit, in vivo", "result": "High"}, {"measurement": "Potency, CMV Binding", "setting": "[2]", "result": "Moderate"}, {"measurement": "IC50", "setting": "[2]; NIH3T3, read-out: IC50 CMV binding assay", "result": 50, "unit": "µg/mL"}, {"measurement": "effect on growth of Lactobacillus gasseri", "setting": "[3]; 5 mg/mL", "result": "no inhibitory effect"}, {"measurement": "growth of Lactobacillus gasseri, % of control", "setting": "[3]; 5 mg/mL (highest concentration tested)", "result": "107 % of control"}, {"measurement": "Potency, Lactobacilli (Doubling time)", "setting": "[3]; max. concentration tested = 5 mg/mL", "result": "None"}, {"measurement": "Potency, SIV Reverse transcriptase", "setting": "[4]", "result": "High"}, {"measurement": "IC50", "setting": "[4]; Simian immunodeficiency virus", "result": 4, "unit": "µg/mL"}, {"measurement": "Potency, HIV-1 CTC", "setting": "[5]", "result": "High"}, {"measurement": "IC50", "setting": "[5]; CD4-dependent cell-to-cell transmission, API, read-out: IC50 CTC assay", "result": 93.5, "unit": "µg/mL"}, {"measurement": "IC50", "setting": "[5]; not API (Table 8: 2% suramin in Replens), read-out: IC50 CTC, second value beside API", "result": 9.6, "unit": "µg/mL"}, {"measurement": "Potency, Hyaluronidase (Hyaluronic Acid Hydrolysis)", "setting": "[6]", "result": "High"}, {"measurement": "N-9-induced release of IL-1 and IL-8 by vaginal cells", "setting": "[7]", "result": "decreased N-9-induced release of IL-1 and IL-8"}, {"measurement": "Potency, Proinflammatory Cytokines (ELISA)", "setting": "[7]", "result": "None"}, {"measurement": "stimulation of proinflammatory cytokines", "setting": "[7]", "result": "no stimulation of proinflammatory cytokines"}, {"measurement": "release of IL-1β by cultured vaginal cells", "setting": "[7]; human, 6 h", "result": "did not induce the release of IL-1β"}, {"measurement": "Potency, Gonococcus (GC) Multiplication", "setting": "[8]", "result": "Moderate"}, {"measurement": "inhibition of GC growth (multiplication assay)", "setting": "[8]; 1 mg/mL", "result": "completely inhibited GC growth"}, {"measurement": "dose-response of GC growth", "setting": "[8]; 1-1000 μg/mL", "result": "no clear dose-response"}, {"measurement": "inhibition at 1000 µg/mL", "setting": "[8]; Neisseria gonorrhoeae, 1 mg/mL, read-out: inhibition of GC multiplication", "result": 100, "unit": "%"}]}]}
